One data set relates to HIV-1 in MT4 cells. The experiment in a line: In vitro anti-HIV activity in MT4 cells, colorimetric XTT assay. It is filed as cell-based. The settings on record: Human immunodeficiency virus 1, MT4. (In general: Tetrazolium dyes change colour on reduction, which living cells bring about.)
A further data set addresses HIV-1 protease (Human immunodeficiency virus type 1 group M subtype B, UniProt P04585). Kind of data set: HIV-1 protease inhibition, fluorometric assay. It is filed as biochemical.
A short description of data set [1]: Bidirectional transport across Caco-2 cell monolayers. The settings on record: human, Caco-2, pH 7.4. For orientation: Caco-2 monolayers are a common model of the intestinal barrier.
Another data set can be described thus: Transport. The settings on record: rat, pH 7.4.

A value given as a limit tells only on which side of the number the result lay.

Regarding `CNC(=O)[C@@H](NC(=O)[C@](O)(Cc1ccccc1)CN(Cc1ccc(-c2ccccn2)cc1)NC(=O)[C@@H](NC(=O)OC)C(C)(C)C)C(C)(C)C` [Compound 11, methyl (S)-1-(2-((S)-2-benzyl-3-((S)-3,3-dimethyl-1-(methylamino)-1-oxobutan-2-ylamino)-2-hydroxy-3-oxopropyl)-2-(4-(pyridin-2-yl)benzyl)hydrazinyl)-3,3-dimethyl-1-oxobutan-2-ylcarbamate], the EC50 in the data set on HIV-1 in MT4 cells is above 10000 nM. Affinity on HIV-1 protease was put at a Ki of 23 nM. In data set [1], the Papp A→B turned out to be 3.4 ± 0.4 ×10⁻⁶ cm/s, the Papp B→A worked out at 26 ± 9.1 ×10⁻⁶ cm/s and the efflux ratio stood at 7.6. In “Transport”, this compound had a Papp of 3.8 ×10⁻⁶ cm/s and a Papp at 90 min below 8 ×10⁻⁶ cm/s.

`CC(C)(C)NC(=O)[C@@H]1CN(Cc2cccnc2)CCN1C[C@@H](O)C[C@@H](Cc1ccccc1)C(=O)N[C@H]1c2ccccc2C[C@H]1O` [Indinavir, reference compound] displayed an EC50 in the data set with HIV-1 in MT4 cells of 41 nM.

What is called EC50 is the concentration giving half of the maximal effect. A low value points to greater potency. Broadly, the Ki is the dissociation constant of the complex between target and ligand, obtained from inhibition or displacement. In general, Papp A→B refers to the apparent permeability from the apical to the basolateral side of a cell layer. Read a high Papp A→B as ready permeation. By Papp B→A is commonly meant how fast a substance crosses the layer from the basolateral side. The term efflux ratio denotes the permeability from basolateral to apical divided by that in the opposite direction, in the common usage. One may read the Papp as the rate of passage across a membrane or cell layer, normalised by area and donor concentration.

The values are drawn from paper PMC3210832 (Journal of Pharmaceutical Sciences, 2011).
